Test system: LN-229
Experiment: Antitumor activity against human LN229 cells xenografted in nude mouse assessed as tumor growth inhibition at 60 mg/kg administered for 5 days in a week for 10 to 12 weeks relative to control
Format: functional
Details: not given
With `COc1ccc(S(=O)(=O)N(Cc2ccc3c(c2)C=CC(C)(C)O3)c2ccccc2)cc1OC` the “fold change (FC)” value was 6.

Test system: not listed separately
Experiment: Inhibition of HIF-1 pathway in human LN229 cells harboring HRE-AP assessed sa reduction in VEGF transcription pretreated for 1 hr under normoxic condition followed by 24 hrs incubation under hypoxic condition by HRE-[…] reporter gene assay
Format: cell-based
Details: LN-229
Compound `COc1ccc(S(=O)(=O)N(Cc2ccc3c(c2)C=CC(C)(C)O3)c2ccccc2)cc1OC` has an IC50 of 0.59 µM. In the case of `COc1ccc(S(=O)(=O)N(Cc2ccc3c(c2)C=CC(C)(C)O3)C2CCCC2)cc1OC`, the IC50 is reported as 0.5 µM. `COc1ccc(S(=O)(=O)N(Cc2ccc3c(n2)C=CC(C)(C)O3)C2CCC2)cc1OC` gave an IC50 of 0.28 µM. `COc1ccc(S(=O)(=O)N(Cc2ccc3c(c2)CCC(C)(C)O3)c2ccccc2)cc1OC` showed an IC50 of 0.98 µM. `COc1ccc(S(=O)(=O)N(Cc2ccc([N+](=O)[O-])cc2)C2CCC2)cc1OC` gave an IC50 of over 5 µM. Compound `COc1ccc(S(=O)(=O)N(Cc2ccccc2[N+](=O)[O-])C2CCC2)cc1OC` has an IC50 of over 5 µM. With `CC1(C)C=Cc2nc(CN(C3CCC3)S(=O)(=O)c3ccc(CBr)cc3)ccc2O1` the IC50 was 2.5 µM. `COc1ccc(S(=O)(=O)N(Cc2ccc3c(c2)C=CC(C)(C)O3)CC2COC2)cc1OC` showed an IC50 of 4 µM. `CCOc1ccc(S(=O)(=O)N(Cc2ccc3c(c2)C=CC(C)(C)O3)C2CCC2)cc1` showed an IC50 of 4.4 µM. In the case of `COc1ccc(S(=O)(=O)N(Cc2ccc3c(c2)C=CC(C)(C)O3)C2CCC2)cc1OC`, the IC50 is reported as 0.75 µM. Compound `COc1ccc(S(=O)(=O)N(Cc2cc3c(cc2Br)OC(C)(C)C=C3)c2ccccc2)cc1OC` has an IC50 of 3.1 µM. In the case of `COc1ccc(S(=O)(=O)N(Cc2ccc3c(c2)CCO3)C2CCC2)cc1OC`, the IC50 is reported as 3.5 µM. With `COc1ccc(S(=O)(=O)N(Cc2ccc3c(c2)CCC(C)(C)O3)C2CCC2)cc1OC` the IC50 was 0.39 µM. `CC1(C)C=Cc2cc(CN(c3ccccc3)S(=O)(=O)c3ccc(OC(F)(F)F)cc3)ccc2O1` showed an IC50 of over 5 µM. For `COc1ccc(S(=O)(=O)N(Cc2ccc3c(n2)CCC(C)(C)O3)C2CCC2)cc1`, the IC50 was 1.2 µM. Work on `CCOc1ccc(S(=O)(=O)N(Cc2ccc3c(c2)C=CC(C)(C)O3)C2CCCC2)cc1` yielded an IC50 of over 5 µM. Work on `COc1ccc(CCN(Cc2ccc3c(n2)C=CC(C)(C)O3)S(=O)(=O)c2ccc(OC)c(OC)c2)cc1OC` yielded an IC50 of over 5 µM. Work on `COc1ccc(S(=O)(=O)N(Cc2ccc3c(c2)C=CC(C)(C)O3)C2CCCC2)c(OC)c1` yielded an IC50 of 1.5 µM. Compound `CC1(C)C=Cc2cc(CN(C3CCC3)S(=O)(=O)c3ccc(Br)cc3)ccc2O1` has an IC50 of over 5 µM. `COc1ccc(S(=O)(=O)N(Cc2ccc3c(c2)OCO3)c2ccccc2)cc1OC` showed an IC50 of over 5 µM. For `COc1ccc(S(=O)(=O)N(Cc2ccc(CN3CCOCC3)cc2)C2CCC2)cc1OC`, the IC50 was 1 µM. Compound `COc1ccc(S(=O)(=O)N(Cc2cc(C)c3c(c2)C=CC(C)(C)O3)c2ccccc2)cc1OC` has an IC50 of 3.2 µM. For `COc1ccc(CN(C2CCC2)S(=O)(=O)c2ccc(OC)c(OC)c2)cc1`, the IC50 was 3.9 µM. For `CC1(C)C=Cc2nc(CN(C3CCC3)S(=O)(=O)c3ccc(OC(F)(F)F)cc3)ccc2O1`, the IC50 was 4 µM. Compound `CC1(C)C=Cc2cc(CN(C3CCC3)S(=O)(=O)c3ccc(F)c(F)c3)ccc2O1` has an IC50 of 4.6 µM. `COc1cccc(S(=O)(=O)N(Cc2ccc3c(c2)C=CC(C)(C)O3)c2ccccc2)c1` gave an IC50 of 1 µM. In the case of `COc1ccc(CN(C2CCC2)S(=O)(=O)c2ccc(OC)c(OC)c2)c(OC)c1`, the IC50 is reported as over 5 µM. For `COc1ccc(S(=O)(=O)N(Cc2ccc[nH]2)C2CCC2)cc1OC`, the IC50 was over 5 µM. `COc1ccc(S(=O)(=O)N(Cc2ccc3c(c2)CCC(C)(C)O3)c2ccccc2)cc1` gave an IC50 of 3.2 µM. Work on `COc1ccc(S(=O)(=O)N(Cc2cccc3c2OC(C)(C)C=C3)c2ccccc2)cc1OC` yielded an IC50 of 1.8 µM. In the case of `COc1ccc(S(=O)(=O)N(Cc2ccc3c(c2)CCC(C)(C)O3)CC2COC2)cc1OC`, the IC50 is reported as over 5 µM. Compound `CC1(C)C=Cc2cc(CN(c3ccccc3)S(=O)(=O)c3ccc(C#N)cc3)ccc2O1` has an IC50 of over 5 µM. `CC1(C)C=Cc2cc(CN(C3CCC3)S(=O)(=O)c3ccc(OC(F)(F)F)cc3)ccc2O1` gave an IC50 of over 5 µM. Compound `COc1ccc(S(=O)(=O)N(Cc2ccc3nonc3c2)c2ccccc2)cc1OC` has an IC50 of over 5 µM. In the case of `COc1ccc(S(=O)(=O)N(Cc2ccc3c(c2)OCO3)C2CCC2)cc1OC`, the IC50 is reported as 1.3 µM. `COc1ccc(S(=O)(=O)N(Cc2ccccc2)C2CCC2)cc1OC` showed an IC50 of over 5 µM. Compound `COc1ccc(S(=O)(=O)N(Cc2ccc3c(n2)CCC(C)(C)O3)C2CCC2)cc1OC` has an IC50 of 0.25 µM. Work on `CC1(C)C=Cc2cc(CN(C3CCCC3)S(=O)(=O)c3ccc(CBr)cc3)ccc2O1` yielded an IC50 of 3 µM. `COc1ccc(S(=O)(=O)N(Cc2cc3c(cc2C)OC(C)(C)C=C3)c2ccccc2)cc1OC` showed an IC50 of 3.3 µM. Work on `COc1ccc(S(=O)(=O)N(Cc2ccc3c(n2)C=CC(C)(C)O3)C2CCC2)cc1` yielded an IC50 of 1.8 µM. In the case of `Cc1noc(C)c1S(=O)(=O)N(Cc1ccc2c(c1)C=CC(C)(C)O2)C1CCC1`, the IC50 is reported as over 5 µM. `CC1(C)C=Cc2cc(CN(c3ccccc3)S(=O)(=O)c3ccc(F)c(F)c3)ccc2O1` showed an IC50 of over 5 µM.

Test system: not listed separately
Experiment: Inhibition of HIF-1 pathway in human LN229 cells harboring HRE-AP by alkaline phosphatase reporter gene assay
Format: cell-based
Details: LN-229
In the case of `COc1ccc(S(=O)(=O)N(Cc2ccc3c(c2)C=CC(C)(C)O3)c2ccccc2)cc1OC`, the IC50 is reported as 0.6 µM.

Reference: ChEMBL document CHEMBL4007485, “Examining the structure-activity relationship of benzopyran-based inhibitors of the hypoxia inducible factor-1 pathway” (Bioorg Med Chem Lett, 2017)
